Read-outs that look alike come from different tables or passages of the source. One block for each compound: values may come before it.
Experiments:
[1] = test system: inositol phosphate accumulation in heart tissue; experiment: Inositol phosphate accumulation in healthy (normoxic) heart tissue; set-up: species or system rat
Protocol: (§1) Adult male sprague dawley rats 250-300 g were used. Where indicated, rats were treated with reserpine (5 mg/kg I.P. for 18 hrs prior to killing) to deplete endogenous noradrenaline stores.. Rats were heparinized 1 U/g I.P. 30 minutes prior to killing by decapitation. Hearts were rapidly excised and immediately chilled in ice-cold saline. Under ice-cold solution, hearts were cannulated via the ascending aorta as described by Langendorff and perfused retrogradely at a rate of 5 ml/min with HEPES-buffered Krebs solution equilibrated with 5%CO2 -95%O2 at 37° C. Initial perfusion was in a non-recirculating manner to remove internal blood. Hearts were allowed to warm up gradually and, when free of internal blood, transferred to a 37° C. water-jacketed organ bath containing carbogenated Krebs medium, and perfusion continued in a recirculating manner. Following a 15 minute equilibration period, hearts were labelled with [^3 H]-inositol, 2 μCi/ml for 2 h. Hearts were monitored throughout the labelling period for strong rhythmic beating.
(§2) Inositol phosphates were extracted from ventricle samples in 3.5 ml ice-cold 5% trichloroacetic acid (TCA), 2.5 mM EDTA, 5 mM phytate solution, as described previously (21). Briefly, ventricles were homogenised with two 10 second passes of a "Polytron" homogenizer separated by 15 second periods on ice. Samples were homogenised further using a Potter-Elvejheim homogeniser followed by brief sonication. Homogenised samples were centrifuged (5000 rpm, 10 min, 4° C.) to remove TCA insoluble material. Supernatants were collected, and the remaining pellet re-extracted in 1.5 ml TCA, EDTA, phytate. Supernatants were pooled and freon, tri-n-ocylamine (1:1 v/v 0.75 ml:1 ml TCA solution) was added, mixed thoroughly, and phases separated by low speed centrifugation (2000 rpm, 10 min 4° C.). The resultant aqueous phase, containing inositol phosphates was collected and treated with proteinase K (50 μg/ml, 2 hr, 50° C.). This process was necessary to preserve the chromatography column. Treated samples were passed through a 1 ml Dowex-50 column (4% cross-linked 4-400 mesh size) and eluted with 1 ml water (22). Urea (0.05 M final) was added (23) and samples lyophilized prior to high performance liquid chromatography (HPLC) analysis. Recovery of inositol phosphates using this method was greater than 95% for each isomer, as estimated by addition of [^3 H]-labelled standards to extractions of unlabelled hearts.
Inositol phosphates were separated by an anion-exchange HPLC system using a Whatman Partisil 10μ SAX column in a Waters Radial Compression Unit, employing a complex ammonium phosphate gradient, pH 3.8 from 0-2 M as described previously (24). Inositol phosphates were detected and quantitated using an on-line […] (model CR, Radiomatic Instruments) All peaks were identified by comparison with commercial standards. Nucleotide standards AMP, ADP, and ATP were run with samples to assess column performance.

[2] = test system: isolated neonatal cardiomyocytes; experiment: Inositol phosphate accumulation in isolated neonatal cardiomyocytes; format: cell-based
[3] = test system: in situ perfused rat hearts; conditions: for Reperfusion-induced arrhythmias VF % incidence / Reperfusion-induced arrhythmias VT % incidence: control 83; for arrhythmias occurring during the ischaemic phase: at the higher concentrations
Protocol: (§3) A model of in situ perfused rat hearts subjected to 20 minutes coronary artery occlusion to induce ischaemia, followed by reperfusion was used to investigate reperfusion-induced arrhythmias.
(§4) Rats (250-300 g) were anaesthetised (pentobarbitone 60 mg/kg, I.P.) and heparinised (200 U/rat I.V.) The thorax was then opened and a metal cannula (ID 1 mm) inserted and tied into the ascending aorta, to commence Langendorff perfusion in situ (31). The interval from opening the chest to commencing heart perfusion was between 50 and 70 seconds. The perfusate was Krebs buffer, with coronary flow controlled by a Ismatac peristaltic pump at a rate of 5 ml/g heart weight/min for the non-ischaemic perfusion. At this flow rate the coronary perfusion pressure was between 32-38 mmHg, measured by pressure transducer (Gould Statham model p23) connected to the sidearm of the perfusion line. Following aortic cancellation, pulmonary vessels were tied off. In some preparations, ventricular pressure was measured by inserting a Millar micro-tip transducer catheter into the left ventricular cavity via the apex. All parameters--coronary perfusion pressure, ventricular pressure, and epicardial ECG, were constantly recorded on a Grass model 7 polygraph. Two hearts were perfused and simultaneously studied.
(§5) A silk suture (4.0) was positioned loosely around the left coronary artery 2-3 mm from its origin. Two silk releasing rings were placed around the suture for subsequent release of occlusion. Successful occlusion of the artery, inducing regional ischaemia, was indicated by increases in coronary perfusion pressure of at least 30%. Perfusion pressure was adjusted to non-ischaemic perfusion levels during the ischaemic period.
(§6) Drugs were added to the perfusion via a Harvard Model 22 pump. The drug flow was less than 1% of perfusion flow to ensure constant perfusate parameters. Unless mentioned otherwise, the drugs were present 10 minutes before, and during the entire ischaemic and reperfusion periods.
(§7) Heart preparations were allowed to stabilise for at least 20 minutes prior to commencing studies. Following 10 minute drug incubation, the left coronary artery was ligated to induce local ischaemia, for a period of 20 minutes. At the end of this ischaemic period, the ligature was released and hearts perfused at pre-ischaemic flow for a period of 5 minutes. Ventricular arrhythmias, occurring during ischaemia or during the first 2 minutes of reperfusion were defined according to the Lambeth Conventions (32).
Incidence of arrhythmias was analysed using a .chi.^2 test, with n≥8 for each group.

Ins(1,4,5)P3 release [4] = experiment: Ins(1,4,5)P3 mass in isolated perfused rat hearts, 2 min reperfusion after 20 min global ischaemia (competitive binding assay); conditions: for Ins(1,4,5)P3 mass: 2 min reperfusion after 20 min global ischaemia, control 200 ± 18
Protocol: as §1
(§8) Following labelling, the [^3 H]-inositol-containing medium was removed, and replaced with Krebs medium containing propranolol (10^-6 M) and lithium chloride (50 mM) to block β-adrenergic receptors and to inhibit InsP metabolism by InsP 1'-phosphatase respectively (20). Hearts were perfused with propranolol, LiCi solution for 10 minutes prior to ischaemia. Antagonists, when administered, were included in this 10 minute preincubation. Normothermic global ischaemia was induced by terminating perfusion for various times up to 30 minutes. Reperfusion was examined following a 20 minute ischaemic period by resuming perfusion at 5 ml/min. Reactions were terminated by freezing hearts in liquid N2 following excision at the atrioventricular junction. Frozen ventricles were weighed and inositol phosphates extracted as described below.
as §2
Mass of Ins(1,4,5)P3 was measured using a competitive binding assay (Amersham TRK 1000) essentially as described previously (26). Ventricle samples were prepared as described above except for the omission of [^3 H]-label during the 2 hr perfusion of hearts prior to ischaemia, and for the use of 5 mm ATP instead of phytate in the extraction procedure.
Protein concentration was determined in aliquots of TCA pellet following InsP extraction using a modified Lowry method with Bovine Serum Albumin as a standard.
Values presented are mean ±SEM, for n=4 unless otherwise stated. Statistical analysis of results involved Students' unpaired "t-test" for all InsP data.

[5] = test system: hearts from reserpinized rats; experiment: Arrhythmic effect of thrombin under reperfusion conditions, perfused hearts from reserpinized rats; set-up: species or system rat; conditions: reserpinized hearts
Protocol: as §3, §4, §5, §6, §7
The finding that thrombin directly stimulated release of Ins(1,4,5)P3 in heart indicates the possibility that thrombin might cause arrhythmias directly via this mechanism. Experiments were performed using hearts from reserpinized rats so that arrhythmic events initiated by noradrenaline were eliminated. Reperfusion arrhythmias were not observed in hearts from reserpinized animals. […] Furthermore, these arrhythmias were inhibited by gentamicin, indicating a relationship to release of Ins(1,4,5)P3 (Table 2).

rats = test system: rats
Protocol: Rats were not heparinised so that effects of thrombin will be contributory to observed arrhythmias.
Rats were anaesthetised with pentobarbitone (60 mg/Kg IP) and artificially ventilated with room air. The chests were opened via the forth intercostal space, and the heart exposed. A 4.0 suture was placed around the left coronary artery and then passed through a guided polyethylene cannula. The thorax was closed leaving the threaded cannula outside the chest. The right carotid artery was cannulated for recording of arterial blood pressure. After stabilisation for 20-30 minutes, the left coronary artery was ligated by pulling the ends of the ligature through the tube and securing them by clamping the tube together with the threads. The ischaemic period was 10 minutes followed by reperfusion. Arterial blood pressure and a lead II ECG was recorded 3 minutes before and during ischaemia, and for the first 5 minutes of reperfusion. […] The size of the ischaemic area was determined at the end of the experiment by the dye method. […] Gentamicin was infused at a dose of 2.5-10 mg/Kg/min prior to initiation of ischaemia and maintained throughout the protocol.

PI-PLC heart rep = experiment: Inhibition of PI-PLC in hearts under reperfusion conditions; set-up: species or system rat
Protocol: as §1, §8
Mass of Ins(1,4,5)P3 was measured using a competitive binding assay (Amersham TRK 1000) essentially as described previously (26). […]

Ins(1,4,5)P3 release [6] = experiment: Thrombin-stimulated release of Ins(1,4,5)P3 in heart tissue; conditions: at concentrations similar to those inhibiting the noradrenaline response under reperfusion
PI-PLC kidney cy = conditions: cytosolic enzyme; from the literature (35); cited from earlier work
PI-PLC kidney me = conditions: membrane enzyme; from the literature (35); cited from earlier work
PC-PLD brain = conditions: read-out: average EC50 PC-PLD brain; from the literature (35); cited from earlier work

Compound: COc1ccc2c(c1)CC[C@@H]1[C@@H]2CC[C@]2(C)[C@@H](NCCCCCCN3C(=O)C=CC3=O)CC[C@@H]12 [U-73122]
release of Ins(1,4,5)P3 in intact heart preparations [1]: did not inhibit
inhibition of accumulation of inositol phosphates ([1]; heart tissue under noradrenaline stimulation): did not inhibit
inhibition of accumulation of inositol phosphates [2]: fully effective inhibitor
anti-arrhythmic activity [3]: without anti-arrhythmic activity
VF% ([3]; 10^-6 M, n 12, control 63): 61%
VT% ([3]; 10^-6 M, n 12, control 100): 88%

potency of inhibition of reperfusion-induced Ins(1,4,5)P3 release relative to neomycin (Ins(1,4,5)P3 release [4]): more potent inhibitors
Ins(1,4,5)P3 mass (Ins(1,4,5)P3 release [4]; 0.015 mM): 145 ± 2 pmol/mg protein
Ins(1,4,5)P3 mass (Ins(1,4,5)P3 release [4]; 0.15 mM): 136 ± 22 pmol/mg protein
Ins(1,4,5)P3 mass (Ins(1,4,5)P3 release [4]; 1.5 mM): 102 ± 17 pmol/mg protein
EC50 (PI-PLC heart rep): 15 µM
Compound: gentamicin
effect on reperfusion arrhythmias [3]: inhibited
rank of potency against reperfusion arrhythmias [3]: most potent agent tested
Reperfusion-induced arrhythmias VF % incidence ([3]; 0.015 mM): 25%
Reperfusion-induced arrhythmias VT % incidence ([3]; 0.015 mM): 58%
Reperfusion-induced arrhythmias VF % incidence ([3]; 0.15 mM): 27%
Reperfusion-induced arrhythmias VT % incidence ([3]; 0.15 mM): 27%
Reperfusion-induced arrhythmias VF % incidence ([3]; 1.5 mM): 8%
Reperfusion-induced arrhythmias VT % incidence ([3]; 1.5 mM): 17%
arrhythmias occurring during the ischaemic phase [3]: partial inhibition
thrombin-induced reperfusion arrhythmias [5]: inhibited
size of ischaemic area vs control animals (rats; dye method, 2.5-10 mg/Kg/min): no difference
arrhythmias occurring under ischaemic conditions in vivo (rats; infused 2.5-10 mg/Kg/min): effective
development of reperfusion arrhythmias in vivo (rats; infused 2.5-10 mg/Kg/min): inhibited
VF% reperfusion arrhythmias in vivo (rats; infused 2.5-10 mg/Kg/min, 10 min occlusion then reperfusion, n 10, control 68): 0%
VT% reperfusion arrhythmias in vivo (rats; infused 2.5-10 mg/Kg/min, 10 min occlusion then reperfusion, n 10, control 100): 30%
inhibition of thrombin-stimulated release of Ins(1,4,5)P3 (Ins(1,4,5)P3 release [6]): inhibited
EC50 (PI-PLC kidney cy): 130 µM
EC50 (PI-PLC kidney me): 500 µM

Compound: [H]/N=C(/N)N[C@H]1[C@H](O)[C@@H](O)[C@H](O[C@@H]2O[C@@H](C)[C@](O)(C=O)[C@H]2O[C@@H]2O[C@@H](CO)[C@H](O)[C@@H](O)[C@@H]2NC)[C@@H](N/C(N)=N\[H])[C@@H]1O [streptomycin]
potency of inhibition of reperfusion-induced Ins(1,4,5)P3 release relative to neomycin (Ins(1,4,5)P3 release [4]): more potent inhibitors
Ins(1,4,5)P3 mass (Ins(1,4,5)P3 release [4]; 0.015 mM): 201 ± 16 pmol/mg protein
Ins(1,4,5)P3 mass (Ins(1,4,5)P3 release [4]; 0.15 mM): 167 ± 5 pmol/mg protein
Ins(1,4,5)P3 mass (Ins(1,4,5)P3 release [4]; 1.5 mM): 94 ± 11 pmol/mg protein
effect on reperfusion arrhythmias [3]: inhibited
Reperfusion-induced arrhythmias VF % incidence ([3]; 0.015 mM): 27%
Reperfusion-induced arrhythmias VT % incidence ([3]; 0.015 mM): 45%
Reperfusion-induced arrhythmias VF % incidence ([3]; 0.15 mM): 6%
Reperfusion-induced arrhythmias VT % incidence ([3]; 0.15 mM): 25%
Reperfusion-induced arrhythmias VF % incidence ([3]; 1.5 mM): 27%
Reperfusion-induced arrhythmias VT % incidence ([3]; 1.5 mM): 45%
arrhythmias occurring during the ischaemic phase [3]: partial inhibition
EC50 (PI-PLC heart rep): 150 µM
EC50 (PI-PLC kidney cy): 380 µM
EC50 (PI-PLC kidney me): 2850 µM
EC50 (PC-PLD brain): 125 µM
